Data published in patent publication US10786475B2, “Method for preventing, treating, or improving fatty liver by administering effective amounts of azelaic acid to a subject” (Korea University Research and Business Foundation, priority 2018, dated 2020).

Key:
Format in all cases: cell-based, mouse
Hepa1c1c-7 cells = assay: MTT cytotoxicity assay in Hepa1c1c-7 cells; conditions: 0 to 500 μM AzA, 24 hours, compared with control group
[1] = test system: Hepa1c1c-7 cells stimulated by LPS; assay: GPCR 10-pathway reporter assay in LPS-induced Hepa1c1c-7 cells; conditions: 100 ng/mL LPS 1 hour, then 50 μM AzA 6 hours
Description: Mouse hepatocytes, i.e., Hepa1c1c-7 cells were seeded on a 96 well-plate at 1×10^4 cells/well and cultured for 24 hours, and transfected with a construct including a transcription factor promoter and a luciferase for 8 hours. The experiment was performed on two groups, i.e., a group with inflammation in hepatocytes caused by LPS and a group not being treated with LPS. In the non-treated control, 50 μM of AzA was treated for 6 hours, and in the experimental group, inflammation was induced by treating 100 ng/mL of LPS, the inflammation-inducing material, for 1 hour, and then 50 μM of AzA was treated for 6 hours. As a result, downstream pathway, which was activated by an AzA, was confirmed. To confirm a mechanism of an anti-inflammatory effect of an AzA, 10 transcription factors for signal transduction of GPCR were analyzed. […] Based on the Olfr544-cAMP-CREB signal transduction process of an AzA, the change of a complicated downstream signal transduction pathway system in response to GPCR activation and inhibition was examined using 10 types of transcription factors through a GPCR 10-pathway reporter assay. A GPCR 10-signal transduction pathway measurement is a method for assessing a representative signal pathway of GPCR using a reporter gene assay method, and the change of a complicated downstream signal transduction pathway system in response to the activation and inhibition of GPCR can be assessed using 10 types of transcription factors. A GPCR Signaling 10-pathway Reporter Array (QIAGEN, Netherlands) used in this example includes a transcription factor inducing downstream signal transduction and a firefly luciferase construct in each experimental group, and is based on a principle, in which luciferase activity is measured by continuously expressing a Renilla luciferase construct. The 10 types of transcription factors are as follows: ATF2/ATF3/ATF4, CREB, ELK1/SRF, FOS/JUN, MEF2, GLI, FOXO, STAT3, NFAT, and NFκB. In this example, the luciferase activity was measured using a dual luciferase assay kit (Promega, USA) and Victor™ X2 (PerkinElmer, CA, USA).

[2] = test system: Hepa1c1c-7 cells stimulated by LPS; assay: IL-6 and TNF-α gene expression (qPCR) in LPS-treated Hepa1c1c-7 cells; conditions: compared with control group
Description: 1 μg of RNA extracted from Hepa1c1c-7 hepatocytes was used to synthesize cDNA by using a ReverTra Ace® qPCR RT kit (TOYOBO, Osaka, Japan). More particularly, to increase the efficiency of an RT-PCR reaction, the extracted RNA was treated at 65° C. for 5 minutes, and immediately stored on ice. Afterward, a total of 8 μL of a reaction mixture was prepared with 2 μL of a 4×DNA Master Mix containing a gDNA remover, 0.5 μg of RNA and distilled water (nuclease-free water), and reacted at 37° C. for 5 minutes. And then, a 5×RT Master mix was added to the reaction mixture, reacted at 37° C.-5 min, 50° C.-5 min and 98° C.-5 min to synthesize cDNA.
PCR was performed with the cDNA synthesized by the above-described method using a THUNDERBIRD SYBR qPCR Mix (TOYOBO, Osaka, Japan) and an iQ5 iCycler system (Bio-Rad, California, USA). More particularly, amplification was performed with initial denaturation at 95° C. for 4.5 minutes, and 40 cycles of additional denaturation at the same temperature for 10 seconds, annealing and cooling at 55 to 60° C. for 30 seconds, and elongation at 68° C. for 20 seconds. The expression level of each gene was normalized using GAPDH expression. Primers were designed using the Nucleotide BLAST Software of the National Center for Biotechnology Information (NCBI), and purchased from Bionics (Seoul, Korea).

O=C(O)CCCCCCCC(=O)O [AzA, nonanedioic acid]
cytotoxicity (MTT assay) (Hepa1c1c-7 cells): toxicity was not exhibited at every concentration
CREB transcription factor activity (cAMP/PKA pathway) [1]: significant activities
ELK1/SRF transcription factor activity (MAPK/ERK pathway) [1]: significant activities
STAT3 transcription factor activity (IL-6 signaling pathway) [1]: significant activities
IL-6 gene expression [2]: significantly decreased
TNF-α gene expression [2]: significantly decreased
